In patent US20250171438A1 (Agios Pharmaceuticals, Inc., priority 2022, published 2025):

The compounds below were run against T1, human PAH with the R408W mutation (Homo sapiens, UniProt P00439, R408W) (assay: Cell Based Phenylalanine Flux Assay). Details: A375 cells expressing human R408W PAH; 24 hrs compound incubation; 13C-Tyrosine by LC-MS; average where tested multiple times; read-out: AC50.
T1 construct: expressed in transfected cells
T1 sequence (P00439 1-452 R408W): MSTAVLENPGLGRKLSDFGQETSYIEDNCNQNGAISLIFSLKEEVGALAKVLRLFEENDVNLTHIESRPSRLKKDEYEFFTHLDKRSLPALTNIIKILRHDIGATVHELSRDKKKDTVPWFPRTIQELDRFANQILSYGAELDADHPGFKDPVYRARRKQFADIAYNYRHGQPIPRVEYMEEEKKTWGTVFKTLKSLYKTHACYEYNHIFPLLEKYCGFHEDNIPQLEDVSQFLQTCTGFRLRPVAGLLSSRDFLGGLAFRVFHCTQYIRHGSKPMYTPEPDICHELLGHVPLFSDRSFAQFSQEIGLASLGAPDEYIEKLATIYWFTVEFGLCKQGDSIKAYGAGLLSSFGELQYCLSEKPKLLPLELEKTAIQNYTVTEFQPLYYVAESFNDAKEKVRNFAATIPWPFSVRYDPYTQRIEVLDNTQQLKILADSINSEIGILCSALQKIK

Row | Compound | AC50 [nM]
1 | Cn1cc(-c2ncc(C(=O)N3CCc4[nH]cnc4[C@@H]3c3nc4ccccc4s3)s2)cn1 [Example 1230, (R)-(4-(benzo[d]thiazol-2-yl)-6,7-dihydro-1H-imidazo[4,5-c]pyridin-5(4H)-yl)(2-(1-methyl-1H-pyrazol-4-yl)thiazol-5-yl)methanone] | 1000 to 5000
2 | O=C(c1ncco1)N1CCc2[nH]cnc2[C@@H]1c1nc2cccc(F)c2s1 [Example 1280, (R)-(4-(7-fluorobenzo[d]thiazol-2-yl)-6,7-dihydro-1H-imidazo[4,5-c]pyridin-5(4H)-yl)(oxazol-2-yl)methanone] | 1000 to 5000
3 | O=C(CCC1CC1)N1CCc2[nH]cnc2[C@@H]1c1nc2ccc(Br)cc2s1 [Example 1146, (R)-1-(4-(6-bromobenzo[d]thiazol-2-yl)-6,7-dihydro-1H-imidazo[4,5-c]pyridin-5(4H)-yl)-3-cyclopropylpropan-1-one] | 500 to 1000
4 | O=C(CCc1nc(Cl)cs1)N1CCc2[nH]cnc2[C@@H]1c1nc2ccccc2s1 [Example 1024, (R)-1-(4-(benzo[d]thiazol-2-yl)-6,7-dihydro-1H-imidazo[4,5-c]pyridin-5(4H)-yl)-3-(4-chlorothiazol-2-yl)propan-1-one] | > 5000
5 | Cc1nc(-c2cnn(C)c2)oc1C(=O)N1CCc2[nH]cnc2[C@H]1c1nc2ccccc2s1 [Example 1376] | < 500
6 | COc1cccc(/C=C/C(=O)N2CCc3[nH]cnc3[C@@H]2c2nc3ccccc3s2)c1 [Example 1012, (R,E)-1-(4-(benzo[d]thiazol-2-yl)-6,7-dihydro-1H-imidazo[4,5-c]pyridin-5(4H)-yl)-3-(3-methoxyphenyl)prop-2-en-1-one] | > 5000
7 | O=C(c1scnc1C(F)(F)F)N1CCc2[nH]cnc2[C@H]1c1nc2ccccc2s1 [Example 1341] | < 500
8 | O=C(CCC1CC1)N1CCc2[nH]cnc2[C@H]1c1nc2cc(F)ccc2s1 [Example 1075, (S)-3-cyclopropyl-1-(4-(5-fluorobenzo[d]thiazol-2-yl)-6,7-dihydro-1H-imidazo[4,5-c]pyridin-5(4H)-yl)propan-1-one] | 500 to 1000
9 | Cc1nc(-c2ccccn2)oc1C(=O)N1CCc2[nH]cnc2[C@H]1c1nc2ccccc2s1 [Example 1371] | < 500
10 | O=C(c1ncc(Cl)s1)N1CCc2[nH]cnc2[C@H]1c1nc2cc(F)ccc2s1 [Example 1261] | 1000 to 5000
11 | O=C(CCc1ccc(F)cc1)N1CCc2[nH]cnc2[C@@H]1c1nc2ccccc2s1 [Example 1006, (R)-1-(4-(benzo[d]thiazol-2-yl)-6,7-dihydro-1H-imidazo[4,5-c]pyridin-5(4H)-yl)-3-(4-fluorophenyl)propan-1-one] | > 5000

The next lines start with the values.

Row | AC50 [nM] | Compound
12 | 1000 to 5000 | O=C(c1nnc(-c2ccn(C(F)F)n2)o1)N1CCc2[nH]cnc2[C@@H]1c1nc2c(F)cccc2s1 [Example 1887, (R)-(5-(1-(difluoromethyl)-1H-pyrazol-3-yl)-1,3,4-oxadiazol-2-yl)(4-(4-fluorobenzo[d]thiazol-2-yl)-6,7-dihydro-1H-imidazo[4,5-c]pyridin-5(4H)-yl)methanone]
13 | < 500 | CC(C)n1ncnc1C(=O)N1CCc2[nH]cnc2[C@H]1c1nc2ccccc2s1 [Example 2037]
14 | 1000 to 5000 | CN1CCN(c2nc(C(F)F)c(C(=O)N3CCc4[nH]cnc4[C@@H]3c3nc4c(F)cccc4s3)o2)CC1 [Example 2024, (R)-(4-(difluoromethyl)-2-(4-methylpiperazin-1-yl)oxazol-5-yl)(4-(4-fluorobenzo[d]thiazol-2-yl)-6,7-dihydro-1H-imidazo[4,5-c]pyridin-5(4H)-yl)methanone]
15 | 500 to 1000 | O=C(c1cnn(C(F)F)c1)N1CCc2[nH]cnc2[C@H]1c1nc2ccccc2s1 [Example 1409]
16 | 1000 to 5000 | O=C(c1cnn(CC2CC(F)(F)C2)c1Cl)N1CCc2[nH]cnc2[C@@H]1c1nc2c(F)cccc2s1 [Example 1990, (R)-(5-chloro-1-((3,3-difluorocyclobutyl)methyl)-1H-pyrazol-4-yl)(4-(4-fluorobenzo[d]thiazol-2-yl)-6,7-dihydro-1H-imidazo[4,5-c]pyridin-5(4H)-yl)methanone]
17 | < 500 | O=C(c1ocnc1C(F)F)N1CCc2[nH]cnc2[C@H]1c1nc2c(F)cccc2s1 [Example 1615]
18 | 1000 to 5000 | Cn1cc(-c2nnc(C(=O)N3CCc4[nH]cnc4[C@@H]3c3nc4c(F)cccc4s3)o2)c(C(F)(F)F)n1 [Example 1928, (R)-(4-(4-fluorobenzo[d]thiazol-2-yl)-6,7-dihydro-1H-imidazo[4,5-c]pyridin-5(4H)-yl)(5-(1-methyl-3-(trifluoromethyl)-1H-pyrazol-4-yl)-1,3,4-oxadiazol-2-yl)methanone]
19 | 500 to 1000 | O=C(c1nnc(NC2CC2)o1)N1CCc2[nH]cnc2[C@H]1c1nc2ccccc2s1 [Example 1593]
20 | > 5000 | N#Cc1ncoc1C(=O)N1CCc2[nH]cnc2[C@@H]1c1nc2ccccc2s1 [Example 1584, (R)-5-(4-(benzo[d]thiazol-2-yl)-4,5,6,7-tetrahydro-1H-imidazo[4,5-c]pyridine-5-carbonyl)oxazole-4-carbonitrile]
21 | < 500 | COCc1ccc2c(C(=O)N3CCc4[nH]cnc4[C@H]3c3nc4ccccc4s3)c(C#N)nn2c1 [Example 1866, (S)-3-(4-(benzo[d]thiazol-2-yl)-4,5,6,7-tetrahydro-1H-imidazo[4,5-c]pyridine-5-carbonyl)-6-(methoxymethyl)pyrazolo[1,5-a]pyridine-2-carbonitrile]
22 | < 500 | Cn1cc(-c2nnc(C(=O)N3CCc4[nH]cnc4[C@H]3c3nc4ccccc4s3)o2)c(C(F)(F)F)n1 [Example 1883]
23 | 1000 to 5000 | Cn1cc(-c2nc(C3CC3)c(C(=O)N3CCc4[nH]cnc4[C@@H]3c3nc4ccccc4s3)o2)cn1 [Example 1517, (R)-(4-(benzo[d]thiazol-2-yl)-6,7-dihydro-1H-imidazo[4,5-c]pyridin-5(4H)-yl)(4-cyclopropyl-2-(1-methyl-1H-pyrazol-4-yl)oxazol-5-yl)methanone]
24 | 1000 to 5000 | Cc1cnc(CC(=O)N2CCc3[nH]cnc3[C@H]2c2nc3ccccc3s2)s1 [Example 1457]

Same assay, conditions: A375 cells expressing human R408W PAH; 24 hrs with compound; 13C-Tyrosine by LC-MS; average where tested multiple times; read-out: AC50

Row | Compound | AC50 [nM]
25 | CC(C)(O)c1noc(C(=O)N2CCc3[nH]cnc3C2c2nc3ccccc3s2)n1 (stereo not shown) | > 5000
26 | O=C(c1cncs1)N1CCc2[nH]cnc2C1c1nc2ccc(Cl)cc2[nH]1 (stereo not shown) | > 5000
27 | O=C(c1cnn2cc(Cc3ccccc3)ccc12)N1CCc2[nH]cnc2C1c1nc2ccccc2s1 (stereo not shown) | > 5000
28 | CC(C)(O)Cn1ncc(C(=O)N2CCc3[nH]cnc3C2c2nc3c(F)cccc3s2)c1C(F)F (stereo not shown) | 1000 to 5000
29 | CC(C)(C)CCC(=O)N1CCc2[nH]cnc2C1c1nc2ccc(F)cc2s1 (stereo not shown) | 1000 to 5000
30 | O=C(c1cc2ccccn2c1)N1CCc2[nH]cnc2[C@H]1c1nc2ccccc2s1 (single isomer, unassigned) | 1000 to 5000
31 | O=C(Cn1cncn1)N1CCc2[nH]cnc2[C@H]1c1nc2ccccc2[nH]1 [(S)-1-(4-(1H-benzo[d]imidazol-2-yl)-6,7-dihydro-1H-imidazo[4,5-c]pyridin-5(4H)-yl)-2-(1H-1,2,4-triazol-1-yl)ethanone] | > 5000
32 | Cc1nc(C(C)(C)O)oc1C(=O)N1CCc2[nH]cnc2[C@H]1c1nc2ccccc2[nH]1 [(S)-(4-(1H-benzo[d]imidazol-2-yl)-6,7-dihydro-1H-imidazo[4,5-c]pyridin-5(4H)-yl)(2-(2-hydroxypropan-2-yl)-4-methyloxazol-5-yl)methanone] | > 5000
33 | c1ccc2[nH]c(C3c4nc[nH]c4CCN3Cc3cncs3)nc2c1 (stereo not shown) | > 5000
34 | CC(C)(C)CCC(=O)N1CCc2[nH]cnc2C1c1nc2ccc(Cl)cc2[nH]1 (stereo not shown) | 1000 to 5000
